The source of these data is patent US11680298B2, “Method of identifying risk of cancer and therapeutic options” (Agency for Science, Technology and Research, priority 2016, dated 2023).

“Also recorded” adds a separate entry of the source.

For experiment [1], the system named is PDX-derived tumourspheres. Description: Mammosphere (tumoursphere) formation assay, PDX-derived tumourspheres. The experiment is classed as cell-based, human. The following applies: four different PDX-derived tumourspheres. The method, then: (§1) Mammosphere Formation Assay PDX-derived tumoursphere cells were trypsinized and passed through 40 μm cell strainer to achieve single cell suspensions. 3×10^4 cells were seeded in 6-well ultra-low attachment plates (Corning, N.Y.; CLS3471) in serum-free DMEM/F12 supplemented with N2 and B27 (Gibco, Grand Island, N.Y.), 20 ng/ml epidermal growth factor (MACS, Auburn, Calif.), 20 ng/ml basic fibroblast growth factor (MACS, Auburn, Calif.), 0.2 μM Thiazovivin ([…] Technologies, Vancouver, BC) and penicillin/streptomycin (Gibco, Carlsbad, Calif.). For breast cancer cell lines and MCF10A cell line, 3×10^4 cells were seeded in 6-well ultra-low attachment plates in Mammocult medium (Stem Cell Technologies, Vancouver, BC, Canada), supplemented with fresh hydrocortisone (0.5 μg/ml) and heparin (1:500). Mammospheres were maintained at 37° C. with 5% CO2 and topped up with medium every 3 days. After 7-9 days, mammospheres were stained with INT (2-(4-iodophenyl)-3-(4-nitrophenyl)-5-phenyl-2H-tetrazolium chloride, Sigma-Aldrich) and quantified. Imaging and quantification were done using GelCount apparatus and associated software (Oxford Optronix, Abingdon, UK). […] Cell Proliferation Assay

The target of experiment [2] is T1, IRAK1 (Homo sapiens, UniProt P51617). Description: Western blot of phospho-IRAK1 in breast cancer cells and patient-derived tumourspheres. Set-up: endogenous in cells; host or cells: MB468 and MB231 cells; PDX-derived tumourspheres. The experiment is classed as cell-based. The method, then:
Recombinant IL-1p (Cat no: 200-01B) was purchased from Peprotech (Rocky Hill, N.J.). Recombinant S100A7 (Cat no: pro-149), S100A8 (Cat no: pro-800) and S100A9 (Cat no: pro-814), were purchased from ProSpec (East Brunswick, N.J.). Cells were treated with recombinant proteins at stated concentration for 20 min before harvesting for western blot. Paclitaxel (Cat no: P-9600) was purchased from LC Lab (Woburn, Mass.).
(§2) All immunoblots shown in this specification represent at least two independent experiments. In brief, cells were washed with PBS and lysed in RIPA buffer supplemented with protease and phosphatase inhibitors and further sonicated using an XL2000 Microson Ultrasonice Processor (Misonix). Equal amounts of protein extract were separated on SDS-polyacrylamided gels and transferred to PVDF membranes. Membranes were further blocked with 5% milk or BSA, and then probed with the following antibodies: anti-IRAK1 was purchased from Santa Cruz Biotechnology (Santa Cruz, Calif.; sc-7883), anti-phospho-IRAK1 (T209) was purchased from Assay Biotech (Sunnyvale, Calif.; A1074), anti-JAK2 (Danvers, Mass.; #3230) and anti-phospho-JAK2 ([…]) (Danvers, Mass.: #3774) were purchased from Cell Signaling Technology, anti-actin was purchased from Sigma Aldrich CA; A5441). For protein extraction of xenograft tumours, snap frozen samples were resuspended in RIPA buffer supplemented with protease and phosphatase inhibitors and homogenized with QIAGEN TissueLyzer II as described by the manufacturer, followed by immunoblotting as described above.

The subject of the next experiment is MB231 tumours. Description: In vivo pacritinib sensitivity test, MB231 orthotopic xenograft. On the set-up: species or system NOD-SCID mice. The following applies: 1q21.3 non-amplified MB231; 50, 100 and 150 mg/kg pacritinib daily by oral gavage for 21 days.
Experiment [3] has as its target T1, IRAK1. As to conditions: recently reported; cited from earlier work.
Experiment [4] deals with T1, IRAK1. Description: Western blot of phospho-IRAK1 in HCC70 xenograft. The experiment is classed as in vivo, NOD-SCID mice. On the set-up: For protein extraction of xenograft tumours, snap frozen samples were resuspended in RIPA buffer; from tissue; host or cells: HCC70 xenograft tumour from NOD-SCID mice. As to conditions: HCC70 xenograft (n=4) treated with pacritinib. The method, then: Mice were then dosed daily by oral gavage for 21 days. Tumour growth was monitored for 1 month.
as §2

A further experiment concerns MB468 tumourspheres. Description: Mammosphere (tumoursphere) formation assay, MB468. Format: cell-based. The following applies: MB468 cell line. The method, then: as §1
In another experiment the target is T2, JAK2 (Homo sapiens, UniProt O60674).
T2 construct: endogenous in cells; host or cells: MB468 and MB231 cells; PDX-derived tumourspheres
T2 sequence (O60674 whole entry): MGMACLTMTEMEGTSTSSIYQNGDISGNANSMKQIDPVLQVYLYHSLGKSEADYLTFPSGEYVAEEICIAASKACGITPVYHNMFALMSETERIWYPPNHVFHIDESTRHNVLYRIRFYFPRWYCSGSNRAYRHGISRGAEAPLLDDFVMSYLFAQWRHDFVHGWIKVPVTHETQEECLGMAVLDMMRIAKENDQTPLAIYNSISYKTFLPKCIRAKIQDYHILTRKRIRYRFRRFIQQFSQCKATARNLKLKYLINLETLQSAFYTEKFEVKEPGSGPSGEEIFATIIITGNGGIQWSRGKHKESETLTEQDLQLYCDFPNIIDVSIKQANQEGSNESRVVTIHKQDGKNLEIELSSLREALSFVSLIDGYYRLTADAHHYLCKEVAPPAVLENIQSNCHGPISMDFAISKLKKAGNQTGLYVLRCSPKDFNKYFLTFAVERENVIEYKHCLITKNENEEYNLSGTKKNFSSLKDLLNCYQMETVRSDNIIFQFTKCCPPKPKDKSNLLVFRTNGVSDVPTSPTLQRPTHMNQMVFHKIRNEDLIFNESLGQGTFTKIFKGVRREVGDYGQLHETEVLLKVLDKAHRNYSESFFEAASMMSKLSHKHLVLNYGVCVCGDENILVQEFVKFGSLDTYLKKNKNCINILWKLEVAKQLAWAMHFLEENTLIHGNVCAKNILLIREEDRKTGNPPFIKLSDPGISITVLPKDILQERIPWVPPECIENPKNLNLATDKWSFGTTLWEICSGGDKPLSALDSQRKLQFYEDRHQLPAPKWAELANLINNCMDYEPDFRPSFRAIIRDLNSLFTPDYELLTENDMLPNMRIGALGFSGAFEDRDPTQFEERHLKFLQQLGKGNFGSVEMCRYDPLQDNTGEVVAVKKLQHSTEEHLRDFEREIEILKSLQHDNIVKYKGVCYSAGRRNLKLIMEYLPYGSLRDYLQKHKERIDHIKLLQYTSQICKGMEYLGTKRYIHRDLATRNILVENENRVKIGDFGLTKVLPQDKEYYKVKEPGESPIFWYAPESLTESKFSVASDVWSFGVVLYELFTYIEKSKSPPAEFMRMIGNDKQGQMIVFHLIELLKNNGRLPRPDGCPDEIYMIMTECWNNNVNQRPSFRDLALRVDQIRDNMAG
Description: Western blot of phospho-JAK2 in breast cancer cells and patient-derived tumourspheres. As to conditions: 6 hr pacritinib treatment, western blot. The experiment is classed as cell-based.
Excerpt: as §2

The test system of the next experiment is MB231 tumourspheres. Description: Mammosphere (tumoursphere) formation assay, MB231. Format: cell-based. The following applies: MB231 cell line. On the procedure: as §1
For experiment [5], the system named is ER positive and ER negative breast cancer cell lines tumourspheres. Description: Tumoursphere growth in breast cancer cell lines with or without 1q21.3 amplification. Format: cell-based. As to conditions: increasing dose of pacritinib. On the procedure:
For this purpose, the 1q21.3 gene amplification in a series of breast cancer cell lines was profiled using ddPCR (FIG. 6A). Of note, 1q21.3 status in these cell lines was in general correlated with phospho-IRAK1 and expression of S100A8/9 (FIG. 6B and FIG. 14A), but not with phospho-JAK2 status (FIG. 6B).
Mammosphere Formation Assay PDX-derived tumoursphere cells were trypsinized and passed through 40 μm cell strainer to achieve single cell suspensions. 3×10^4 cells were seeded in 6-well ultra-low attachment plates (Corning, N.Y.; CLS3471) in serum-free DMEM/F12 supplemented with N2 and B27 (Gibco, Grand Island, N.Y.), 20 ng/ml epidermal growth factor (MACS, Auburn, Calif.), 20 ng/ml basic fibroblast growth factor (MACS, Auburn, Calif.), 0.2 μM Thiazovivin ([…] Technologies, Vancouver, BC) and penicillin/streptomycin (Gibco, Carlsbad, Calif.). For breast cancer cell lines and MCF10A cell line, 3×10^4 cells were seeded in 6-well ultra-low attachment plates in Mammocult medium (Stem Cell Technologies, Vancouver, BC, Canada), supplemented with fresh hydrocortisone (0.5 μg/ml) and heparin (1:500). […] After 7-9 days, mammospheres were stained with INT (2-(4-iodophenyl)-3-(4-nitrophenyl)-5-phenyl-2H-tetrazolium chloride, Sigma-Aldrich) and quantified. Imaging and quantification were done using GelCount apparatus and associated software (Oxford Optronix, Abingdon, UK). […]

T1 sequence (P51617 whole entry): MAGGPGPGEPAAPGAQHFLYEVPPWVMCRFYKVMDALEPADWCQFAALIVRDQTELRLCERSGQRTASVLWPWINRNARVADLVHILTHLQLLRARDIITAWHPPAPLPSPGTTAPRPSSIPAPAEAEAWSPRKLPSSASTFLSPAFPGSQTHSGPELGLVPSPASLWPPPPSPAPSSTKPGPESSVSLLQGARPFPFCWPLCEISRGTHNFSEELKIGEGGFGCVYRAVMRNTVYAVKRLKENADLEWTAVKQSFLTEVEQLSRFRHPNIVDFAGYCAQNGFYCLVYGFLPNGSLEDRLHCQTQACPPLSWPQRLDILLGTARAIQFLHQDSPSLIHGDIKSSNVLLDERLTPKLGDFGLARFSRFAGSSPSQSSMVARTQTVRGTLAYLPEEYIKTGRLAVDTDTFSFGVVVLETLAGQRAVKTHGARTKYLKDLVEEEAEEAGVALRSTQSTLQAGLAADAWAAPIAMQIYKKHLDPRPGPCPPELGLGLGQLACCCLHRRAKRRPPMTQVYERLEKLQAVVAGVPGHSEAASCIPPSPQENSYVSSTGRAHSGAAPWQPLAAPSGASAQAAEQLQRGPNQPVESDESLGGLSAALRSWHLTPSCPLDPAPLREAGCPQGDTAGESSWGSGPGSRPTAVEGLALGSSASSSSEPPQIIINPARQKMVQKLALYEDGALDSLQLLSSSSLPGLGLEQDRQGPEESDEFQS

Consider `C1=C/COCc2cc(ccc2OCCN2CCCC2)Nc2nccc(n2)-c2cccc(c2)COC/1` [pacritinib], for which the tumoursphere growth entry in [1] is reported as “strong tumoursphere growth inhibition”. Besides, the “phosphorylation of IRAK1” value at IRAK1 [2] (MB468 cells, 6 hr pacritinib treatment, western blot) is “inhibition of phospho-IRAK1 and phospho-JAK2 within 6 hr; also recorded: effectively block the phosphorylation of both IRAK1 and JAK2 as early as 6 hours in a dose-dependent manner”. For the same compound, at IRAK1 [2] (patient-derived (PDX-derived) tumoursphere cells, 24 hr, pacritinib 2.5 μM, with and without IL-1), the phospho-IRAK1 result is given as “prolonged inhibition of phospho-IRAK1; also recorded: sustained inhibition of phospho-IRAK1”. Also, in the experiment on MB231 tumours, the tumour growth result was “no obvious effect”. Besides, the IRAK1 inhibition entry on IRAK1 [3] is reported as “potent IRAK1 inhibitor”. Also, at IRAK1 [4], the “phospho-IRAK1 level in xenograft” value is given as “downregulation of phospho-IRAK1”. Moreover, the number of tumourspheres entry with MB468 tumourspheres is “strong tumoursphere inhibitory effect”; in the experiment with MB231 tumourspheres, “little effect”. The “phosphorylation of JAK2” value at JAK2 (MB231 cells) was “inhibition of phospho-IRAK1 and phospho-JAK2 within 6 hr; also recorded: inhibited phosphorylation of JAK2”; on JAK2 (MB468 cells), “inhibition of phospho-IRAK1 and phospho-JAK2 within 6 hr; also recorded: effectively block the phosphorylation of both IRAK1 and JAK2 as early as 6 hours in a dose-dependent manner”. The “tumoursphere growth, 1q21.3 amplified versus non-amplified cell lines” value in experiment [5] is given as “preferential growth inhibition of breast cancer cells containing amplified S100A8 and/or S100A9 genes; also recorded: more effective in impairing tumoursphere growth in cancer cell lines positive for 1q21.3 amplification compared to negative cell lines; also recorded: more sensitive to pacritinib treatment compared to cancer cells without 1q21.3 amplification”.
